Results reported in ChEMBL document CHEMBL2029344, “A new class of prolylcarboxypeptidase inhibitors, part 2: the aminocyclopentanes” (Bioorg Med Chem Lett, 2012).

What was measured:
[1] = Stability in human liver microsomes after 30 mins by LC/MS analysis; format: ADME, Microsome; settings: read-out: Stability
[2] = target: T1, Lysosomal Pro-X carboxypeptidase (Mus musculus, UniProt Q7TMR0); assay: Inhibition of mouse PrCP
T1 sequence (Q7TMR0 whole entry): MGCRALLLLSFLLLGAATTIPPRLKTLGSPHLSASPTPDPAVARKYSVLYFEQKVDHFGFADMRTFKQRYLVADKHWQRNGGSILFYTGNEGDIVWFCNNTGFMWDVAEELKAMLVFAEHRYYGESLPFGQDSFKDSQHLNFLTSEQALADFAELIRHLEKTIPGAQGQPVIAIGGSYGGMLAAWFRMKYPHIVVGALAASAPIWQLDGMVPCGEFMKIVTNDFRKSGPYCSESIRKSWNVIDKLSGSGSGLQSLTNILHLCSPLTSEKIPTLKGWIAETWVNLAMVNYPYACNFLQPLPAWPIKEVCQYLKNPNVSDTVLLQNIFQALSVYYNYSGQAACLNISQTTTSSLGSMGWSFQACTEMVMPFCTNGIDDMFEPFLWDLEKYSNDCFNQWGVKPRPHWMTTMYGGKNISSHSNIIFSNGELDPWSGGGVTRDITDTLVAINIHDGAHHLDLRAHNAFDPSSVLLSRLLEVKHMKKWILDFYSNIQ

[3] = Stability in mouse liver microsomes after 30 mins by LC/MS analysis; format: ADME, Microsome; settings: read-out: Stability
[4] = Percentage unbound in 10% mouse plasma; format: ADME, cell-free
[5] = Percentage unbound in 10% human plasma; format: ADME, cell-free
[6] = target: Mus musculus; assay: Ex-vivo inhibition of po dosed mouse PrCP by FRET analysis in absence of plasma; format: functional, organism-based
[7] = target: Mus musculus; assay: Ex-vivo inhibition of po dosed mouse PrCP by FRET analysis in presence of heat inactivated 100% plasma; format: functional, organism-based
[8] = target: Mus musculus; assay: Ex-vivo inhibition of po dosed mouse PrCP by FRET analysis in presence of heat inactivated 25% plasma; format: functional, organism-based
[9] = Half life in mouse at 1 mg/kg, iv and 30 mg/kg, po; format: ADME, organism-based; settings: in vivo
[10] = Ratio of drug uptake in brain to plasma of C57 mouse at 30 mg/kg, po after 20 hrs by LC/MS analysis; format: ADME, organism-based; design: dose 30 mg/kg, route oral; settings: read-out: BPR
[11] = Drug uptake in C57 mouse brain at 10 mg/kg, po after 20 hrs by LC/MS analysis; format: ADME, organism-based; design: dose 10 mg/kg, route oral; settings: read-out: Drug uptake
[12] = Drug uptake in C57 mouse plasma at 30 mg/kg, po after 20 hrs by LC/MS analysis; format: ADME, organism-based; design: dose 30 mg/kg, route oral
[13] = Drug uptake in C57 mouse brain at 30 mg/kg, po after 20 hrs by LC/MS analysis; format: ADME, organism-based; design: dose 30 mg/kg, route oral; settings: read-out: Drug uptake
[14] = tested on: Mus musculus; assay: Ex-vivo inhibition of PrCP in heat inactivated 100% plasma of C57 mouse assessed as target engagement calculated as [cmpd]plasma/([cmpd]plasma + Ki (heat inactivated plasma))x100 at 10 mg/kg, po after 20 hrs by FRET analysis; format: functional; design: scale not given: the % may be the effect or the level left
[15] = Drug uptake in C57 mouse plasma at 10 mg/kg, po after 20 hrs by LC/MS analysis; format: ADME, organism-based; design: dose 10 mg/kg, route oral
[16] = tested on: Mus musculus; assay: Dose normalized AUC in mouse at 1 mg/kg, iv and 30 mg/kg, po; format: ADME, organism-based; settings: in vivo
[17] = tested on: Mus musculus; assay: Ex-vivo inhibition of PrCP in heat inactivated 100% plasma of C57 mouse assessed as target engagement at 10 mg/kg, po after 20 hrs by FRET analysis; format: functional; design: scale not given: the % may be the effect or the level left
[18] = Apparent permeability across pig LLC-PK1 cells at 1 uM; format: ADME, cell-based, Sus scrofa
[19] = Ratio of drug uptake in brain to plasma of C57 mouse at 10 mg/kg, po after 20 hrs by LC/MS analysis; format: ADME, organism-based; design: dose 10 mg/kg, route oral; settings: read-out: BPR
[20] = Volume of distribution in mouse at 1 mg/kg, iv and 30 mg/kg, po; format: ADME, organism-based; settings: in vivo
[21] = tested on: Mus musculus; assay: Ex-vivo inhibition of PrCP in heat inactivated 100% plasma of C57 mouse assessed as target engagement at 30 mg/kg, po after 20 hrs by FRET analysis; format: functional; design: scale not given: the % may be the effect or the level left
[22] = tested on: Mus musculus; assay: Ex-vivo inhibition of PrCP in heat inactivated 100% plasma of C57 mouse assessed as target engagement calculated as [cmpd]plasma/([cmpd]plasma + Ki (heat inactivated plasma))x100 at 30 mg/kg, po after 20 hrs by FRET analysis; format: functional; design: scale not given: the % may be the effect or the level left
[23] = Clearance in mouse at 1 mg/kg, iv and 30 mg/kg, po; format: ADME, organism-based; settings: in vivo
[24] = Oral bioavailability in mouse at 30 mg/kg; format: ADME, organism-based; settings: in vivo
[25] = tested on: Mus musculus; assay: Toxicity in po dosed C57 mouse; format: organism-based; settings: in vivo
[26] = tested on: Mus musculus; assay: Ex-vivo inhibition of PrCP in heat inactivated 100% plasma of po dosed C57 mouse assessed as target engagement after 20 hrs by FRET analysis; format: functional; design: scale not given: the % may be the effect or the level left
[27] = Ratio of drug uptake in brain to plasma of C57 mouse at 3 mg/kg, po after 20 hrs by LC/MS analysis; format: ADME, organism-based; design: dose 3 mg/kg, route oral; settings: read-out: BPR
[28] = tested on: Mus musculus; assay: Ex-vivo inhibition of PrCP in heat inactivated 100% plasma of C57 mouse assessed as target engagement calculated as [cmpd]plasma/([cmpd]plasma + Ki (heat inactivated plasma))x100 at 3 mg/kg, po after 20 hrs by FRET analysis; format: functional; design: scale not given: the % may be the effect or the level left
[29] = Drug uptake in C57 mouse plasma at 3 mg/kg, po after 20 hrs by LC/MS analysis; format: ADME, organism-based; design: dose 3 mg/kg, route oral
[30] = Drug uptake in C57 mouse brain at 3 mg/kg, po after 20 hrs by LC/MS analysis; format: ADME, organism-based; design: dose 3 mg/kg, route oral; settings: read-out: Drug uptake
[31] = tested on: Mus musculus; assay: Ex-vivo inhibition of PrCP in heat inactivated 100% plasma of C57 mouse assessed as target engagement at 3 mg/kg, po after 20 hrs by FRET analysis; format: functional; design: scale not given: the % may be the effect or the level left

Row | SMILES | remaining at 0.5 h [1] | IC50 [2] | remaining at 0.5 h [3] | fraction unbound [4] | fraction unbound [5] | Ki [6] | Ki [7] | Ki [8] | other results
1 | Cc1nc(C2CCN(C(=O)[C@@H]3C[C@](C)(N)C[C@H]3c3ccc(F)cc3F)CC2)n(-c2ccc(F)c(Cl)c2)n1 | 91% | 47.8 nM | 93% | – | – | – | – | – | –
2 | C[C@@]1(N)C[C@@H](C(=O)N2CCC(c3ncnn3-c3ccc(F)c(Cl)c3)CC2)[C@H](c2ccc(F)cc2F)C1 | – | 16 nM | – | 0.15 | 0.21 | – | – | – | –
3 | Cc1cc(C2CCN(C(=O)[C@@H]3C[C@@](C)(N(C)C)C[C@H]3c3ccc(F)cc3F)CC2)n(-c2cc(Cl)ccc2Cl)n1 | 12% | 0.4 nM | 33.6% | 0.013 | 0.087 | 0.5 nM | 2.1 nM | 0.9 nM | –
4 | Cc1cc(C2CCN(C(=O)[C@@H]3C[C@@](C)(N)C[C@H]3c3ccc(F)cc3F)CC2)n(-c2cc(Cl)ccc2Cl)n1 | 39% | 0.9 nM | 78% | 0.02 | 0.071 | 1 nM | 5.2 nM | 2.1 nM | –
5 | Cc1cc(C2CCN(C(=O)[C@@H]3C[C@@](C)(N(C)C)C[C@H]3c3ccc(F)cc3F)CC2)n(-c2ccc(F)c(Cl)c2)n1 | – | 0.5 nM | – | 0.035 | 0.064 | 0.6 nM | 4.5 nM | 1.5 nM | –
6 | Cc1cc(C2CCN(C(=O)[C@@H]3C[C@@](C)(N)C[C@H]3c3ccc(F)cc3F)CC2)n(-c2ccc(F)c(Cl)c2)n1 | 60% | – | 90% | 0.036 | 0.043 | 1.6 nM | 10.1 nM | 3.7 nM | half-life [9]: 294 min; Kp at 20 h [10]: 0.17; concentration at 20 h [11]: 39 nM; concentration at 20 h [12]: 2820 nM; concentration at 20 h [13]: 363 nM; Activity [14]: 96.1%; concentration at 20 h [15]: 246 nM; AUC/dose [16]: 1 µM·kg·h/mg; Activity [17]: 62.8%; Papp at 1 µM [18]: 24 ×10⁻⁶ cm/s; Kp at 20 h [19]: 0.18; Vd [20]: 6.2 L/kg; Activity [21]: >=100%; Activity [22]: 99.6%; clearance [23]: 18 mL/min/kg; bioavailability [24]: 57%
7 | Cc1cc(C2CCN(C(=O)[C@@H]3C[C@](C)(N)C[C@H]3c3ccc(F)cc3F)CC2)n(-c2ccc(F)c(Cl)c2)n1 | – | – | – | 0.043 | 0.069 | 10.9 nM | 66.1 nM | 24.7 nM | –
8 | CN(C)[C@]1(C)C[C@H](C(=O)N2CCC(c3ccnn3-c3ccc(F)c(Cl)c3)CC2)[C@@H](c2ccc(F)cc2F)C1 | 1% | – | 23% | 0.091 | 0.144 | – | – | – | Activity [25]: Non-toxic; concentration at 20 h [11]: 26 nM; Activity [14]: 99.6%; concentration at 20 h [15]: 305 nM; Activity [17]: >=100%; Papp at 1 µM [18]: 23.1 ×10⁻⁶ cm/s; Kp at 20 h [19]: 0.09; Activity [26]: 38%
9 | CN(C)[C@@]1(C)C[C@H](C(=O)N2CCC(c3ccnn3-c3ccc(F)c(Cl)c3)CC2)[C@@H](c2ccc(F)cc2F)C1 | 2% | – | 34% | 0.132 | 0.104 | – | – | – | –
10 | C[C@@]1(N)C[C@H](C(=O)N2CCC(c3ccnn3-c3ccc(F)c(Cl)c3)CC2)[C@@H](c2ccc(F)cc2F)C1 | 20% | 1 nM | 73% | 0.035 | 0.065 | 0.7 nM | 3.9 nM | 1.5 nM | Kp at 20 h [27]: 0.18; Kp at 20 h [10]: 0.07; Activity [25]: Non-toxic; concentration at 20 h [11]: 51 nM; concentration at 20 h [12]: 2130 nM; concentration at 20 h [13]: 142 nM; Activity [14]: 100%; Activity [28]: 84.2%; concentration at 20 h [15]: 185 nM; concentration at 20 h [29]: 23 nM; concentration at 20 h [30]: 6 nM; Activity [17]: 72%; Activity [31]: 31%; Papp at 1 µM [18]: 21.7 ×10⁻⁶ cm/s; Kp at 20 h [19]: 0.28; Activity [21]: >=100%; Activity [26]: 38%; Activity [22]: 100%
11 | C[C@]1(N)C[C@H](C(=O)N2CCC(c3ccnn3-c3ccc(F)c(Cl)c3)CC2)[C@@H](c2ccc(F)cc2F)C1 | 33% | 2.6 nM | 89% | 0.061 | 0.1 | – | – | – | –
